Source: patent US12692254B2, “Benzimidazole inhibitors of PAD enzymes” (BRISTOL-MYERS SQUIBB COMPANY, priority 2018, dated 2026)

What follows are compounds tested against human PAD4 (hPAD4) (Homo sapiens, UniProt Q9UM07) (assay: RFMS human PAD4 functional assay (rapid-fire mass spectrum)). Settings: 5 nM hPAD4 enzyme, 250 μM BAEE, 50 μM Calcium; 30 min preincubation, 90 min reaction at 37° C.
Assay type: biochemical
In short: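 PAD4 (10 nM) preincubated 30 min with compound (top final 50 μM), then BAEE substrate added in pH 7.5 HEPES buffer with DTT, 50 μM calcium, TPEN; 90 min at 37° C. After TCA quench, citrulline derivatized with phenyl glyoxal (4 mM final, 30 min, 37° C) and quantified by RapidFire MS against internal standard.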

Chain of human PAD4 (hPAD4) (Q9UM07 whole entry): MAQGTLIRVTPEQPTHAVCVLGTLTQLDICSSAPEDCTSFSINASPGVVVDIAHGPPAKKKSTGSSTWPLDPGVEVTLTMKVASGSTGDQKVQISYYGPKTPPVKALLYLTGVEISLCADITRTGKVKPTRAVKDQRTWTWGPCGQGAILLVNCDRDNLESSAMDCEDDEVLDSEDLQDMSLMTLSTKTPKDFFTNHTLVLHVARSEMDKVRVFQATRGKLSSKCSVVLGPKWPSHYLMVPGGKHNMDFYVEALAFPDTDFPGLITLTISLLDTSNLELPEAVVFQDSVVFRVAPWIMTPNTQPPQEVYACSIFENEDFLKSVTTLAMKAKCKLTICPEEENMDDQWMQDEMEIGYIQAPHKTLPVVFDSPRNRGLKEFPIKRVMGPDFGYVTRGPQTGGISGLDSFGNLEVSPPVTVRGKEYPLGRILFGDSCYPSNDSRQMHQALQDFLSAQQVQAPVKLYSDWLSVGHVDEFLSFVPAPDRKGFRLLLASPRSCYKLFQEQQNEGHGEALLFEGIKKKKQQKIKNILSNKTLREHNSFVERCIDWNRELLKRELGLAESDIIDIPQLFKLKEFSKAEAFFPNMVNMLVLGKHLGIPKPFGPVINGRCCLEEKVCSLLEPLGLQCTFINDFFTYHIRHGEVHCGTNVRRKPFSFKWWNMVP

Row | SMILES | IC50 [nM]
1 | COc1cc(C(=O)N2C[C@H]3CC[C@@H]2[C@@H]3N)cc2nc(-c3cc4cccnc4n3CC3CC3)n(C3CN(C(=O)c4ccnc(F)c4)C3)c12 [Example 193, (1R,4R,7R)-2-{2-[1-(cyclopropylmethyl)-1H-pyrrolo[2,3-b]pyridin-2-yl]-1-[1-(2-fluoropyridine-4-carbonyl)azetidin-3-yl]-7-methoxy-1H-1,3-benzodiazole-5-carbonyl}-2-azabicyclo[2.2.1]heptan-7-amine] | 2720
2 | COc1cc(C(=O)N2C[C@H](N)C[C@@H](F)C2)cc2nc(-c3cc4ccccc4n3CC3CC3)n(CC3CC3)c12 [Example 480, (3R,5R)-1-[1-(cyclopropylmethyl)-2-[1-(cyclopropylmethyl)-1H-indol-2-yl]-7-methoxy-1H-1,3-benzodiazole-5-carbonyl]-5-fluoropiperidin-3-amine] | 301
3 | COc1cc(C(=O)N2CC3CCC2[C@@H]3N)cc2nc(-c3cc4cccnc4n3CC3CC3)n(CC3CCN(c4ncccn4)C3)c12 (stereo in doubt) [Example 234, (1R,4R,7R)-2-{2-[1-(cyclopropylmethyl)-1H-pyrrolo[2,3-b]pyridin-2-yl]-7-methoxy-1-{[(3R)-1-(pyrimidin-2-yl)pyrrolidin-3-yl]methyl}-1H-1,3-benzodiazole-5-carbonyl}-2-azabicyclo[2.2.1]heptan-7-amine] | 332
4 | COc1cc(C(=O)N2C[C@H]3CC[C@@H]2[C@@H]3N)cc2nc(-c3cc4cccnc4n3CC3CC3)n(CC3CN(S(=O)(=O)c4ccc(Cl)nc4)C3)c12 [Example 334, (1R,4R,7R)-2-[1-({1-[(6-chloropyridin-3-yl)sulfonyl]azetidin-3-yl}methyl)-2-[1-(cyclopropylmethyl)-1H-pyrrolo[2,3-b]pyridin-2-yl]-7-methoxy-1H-1,3-benzodiazole-5-carbonyl]-2-azabicyclo[2.2.1]heptan-7-amine] | 225
5 | COc1cc(C(=O)N2CC3CCC2[C@@H]3N)cc2nc(-c3cc4cccnc4n3CC3CC3)n(C3CN(S(=O)(=O)C(F)(F)F)C3)c12 (stereo partly drawn) [Example 340, (1R,,4R,7R)-2-{2-[1-(cyclopropylmethyl)-1H-pyrrolo[2,3-b]pyridin-2-yl]-7-methoxy-1-(1-trifluoromethanesulfonylazetidin-3-yl)-1H-1,3-benzodiazole-5-carbonyl}-2-azabicyclo[2.2.1]heptan-7-amine] | 1260
6 | COc1cc(C(=O)N2CC3CCC2[C@@H]3N)cc2nc(-c3cc4cccnc4n3CC3CC3)n([C@H]3C[C@@H](C(N)=O)C3)c12 (stereo partly drawn) [Example 294, (1s,3s)-3-{5-[(1R,4R,7R)-7-amino-2-azabicyclo[2.2.1]heptane-2-carbonyl]-2-[1-(cyclopropylmethyl)-1H-pyrrolo[2,3-b]pyridin-2-yl]-7-methoxy-1H-1,3-benzodiazol-1-yl}cyclobutane-1-carboxamide] | 456
7 | COc1cc(C(=O)N2CC3CCC2[C@@H]3N)cc2nc(-c3cc4ccccc4n3CC3CC3)n(CC3CC3c3ccccc3)c12 (stereo partly drawn) [Example 479, (7R)-2-{2-[1-(cyclopropylmethyl)-1H-indol-2-yl]-7-methoxy-1-[(2-phenylcyclopropyl)methyl]-1H-1,3-benzodiazole-5-carbonyl}-2-azabicyclo[2.2.1]heptan-7-amine] | 212
8 | COc1cc(C(=O)N2CC3CCC2[C@@H]3N)cc2nc(-c3cc4ccccc4n3CC(F)F)n(Cc3cnn(C)c3)c12 (stereo partly drawn) [Example 502, (7R)-2-{2-[1-(2,2-difluoroethyl)-1H-indol-2-yl]-7-methoxy-1-[(1-methyl-1H-pyrazol-4-yl)methyl]-1H-1,3-benzodiazole-5-carbonyl}-2-azabicyclo[2.2.1]heptan-7-amine] | 146
9 | COc1cc(C(=O)N2C[C@H](N)C[C@@H](F)C2)cc2nc(-c3cc4cccnc4n3CC3CC3)n(Cc3cc(C)nn3C)c12 [Example 515, (3R,5R)-1-{2-[1-(cyclopropylmethyl)-1H-pyrrolo[2,3-b]pyridin-2-yl]-1-[(1,3-dimethyl-1H-pyrazol-5-yl)methyl]-7-methoxy-1H-1,3-benzodiazole-5-carbonyl}-5-fluoropiperidin-3-amine] | 501
10 | COc1cc(C(=O)N2C[C@H]3CC[C@@H]2[C@@H]3N)cc2nc(-c3cc4cc(Cl)ccc4n3C)n(CC3CN(c4cncc(C#N)n4)C3)c12 [Example 59, 6-[3-({5-[(1R,4R,7R)-7-amino-2-azabicyclo[2.2.1]heptane-2-carbonyl]-2-(5-chloro-1-methyl-1H-indol-2-yl)-7-methoxy-1H-1,3-benzodiazol-1-yl}methyl)azetidin-1-yl]pyrazine-2-carbonitrile] | 171

The next compounds have a lower IC50 than those just listed; values first:

Row | IC50 [nM] | SMILES
11 | 129 | COc1cc(C(=O)N2C[C@H](N)C[C@@H](F)C2)cc2nc(-c3cc4cccnc4n3CC3CC3)n(CC3(C)CN(C(=O)c4ccccc4)C3)c12 [Example 469, (3R,5R)-1-{1-[(1-benzoyl-3-methylazetidin-3-yl)methyl]-2-[1-(cyclopropylmethyl)-1H-pyrrolo[2,3-b]pyridin-2-yl]-7-methoxy-1H-1,3-benzodiazole-5-carbonyl}-5-fluoropiperidin-3-amine]
12 | 57 | Cn1cc(Cn2c(-c3cc4cccnc4n3CC3CC3)nc3cc(C(=O)N4CC5CCC4[C@@H]5N)cc(F)c32)cn1 (stereo partly drawn) [Example 491, (7R)-2-{2-[1-(cyclopropylmethyl)-1H-pyrrolo[2,3-b]pyridin-2-yl]-7-fluoro-1-[(1-methyl-1H-pyrazol-4-yl)methyl]-1H-1,3-benzodiazole-5-carbonyl}-2-azabicyclo[2.2.1]heptan-7-amine]
13 | 48 | COc1cc(C(=O)N2C[C@H]3CC[C@@H]2[C@@H]3N)cc2nc(-c3cc4ccccc4n3CC3CC3)n(CCCOc3ccc(C#N)cc3)c12 [Example 260, 4-(3-{5-[(1R,4R,7R)-7-amino-2-azabicyclo[2.2.1]heptane-2-carbonyl]-2-[1-(cyclopropylmethyl)-1H-indol-2-yl]-7-methoxy-1H-1,3-benzodiazol-1-yl}propoxy)benzonitrile]
14 | 43 | COc1cc(C(=O)N2CC3CCC2[C@@H]3N)cc2nc(-c3cc4ccccc4n3CC3CC3)n(CC3CN(C(=O)c4ccc(Cl)s4)C3)c12 (stereo partly drawn) [Example 445, (7R)-2-(1-{[1-(5-chlorothiophene-2-carbonyl)azetidin-3-yl]methyl}-2-[1-(cyclopropylmethyl)-1H-indol-2-yl]-7-methoxy-1H-1,3-benzodiazole-5-carbonyl)-2-azabicyclo[2.2.1]heptan-7-amine]
15 | 43 | COc1cc(C(=O)N2CC3CCC2[C@@H]3N)cc2nc(-c3cc4cccnc4n3CC3CC3)n(CC3(C)CN(C(=O)c4ccccc4)C3)c12 (stereo partly drawn) [Example 444, (7R)-2-{1-[(1-benzoyl-3-methylazetidin-3-yl)methyl]-2-[1-(cyclopropylmethyl)-1H-pyrrolo[2,3-b]pyridin-2-yl]-7-methoxy-1H-1,3-benzodiazole-5-carbonyl}-2-azabicyclo[2.2.1]heptan-7-amine]
16 | 42 | COc1cc(C(=O)N2CC3CCC2[C@@H]3N)cc2nc(-c3cc4ccccc4n3CC3CC3)n(Cc3cnn(-c4cccnc4C#N)c3)c12 (stereo partly drawn) [Example 385, 3-[4-({5-[(7R)-7-amino-2-azabicyclo[2.2.1]heptane-2-carbonyl]-2-[1-(cyclopropylmethyl)-1H-indol-2-yl]-7-methoxy-1H-1,3-benzodiazol-1-yl}methyl)-1H-pyrazol-1-yl]pyridine-2-carbonitrile]
17 | 41 | COc1cc(C(=O)N2C[C@H]3CC[C@@H]2[C@@H]3N)cc2nc(-c3cc4cccnc4n3CC3CC3)n(CC3CN(C(=O)C#Cc4ccccc4)C3)c12 [Example 109, 1-[3-({5-[(1R,4R,7R)-7-amino-2-azabicyclo[2.2.1]heptane-2-carbonyl]-2-[1-(cyclopropylmethyl)-1H-pyrrolo[2,3-b]pyridin-2-yl]-7-methoxy-1H-1,3-benzodiazol-1-yl}methyl)azetidin-1-yl]-3-phenylprop-2-yn-1-one]
18 | 30 | N#Cc1ccc(C(=O)N2CC(Cn3c(-c4cc5ccccc5n4CC4CC4)nc4cc(C(=O)N5C[C@H]6CC[C@@H]5[C@@H]6N)ccc43)C2)cc1 [Example 165, 4-[3-({5-[(1R,4R,7R)-7-amino-2-azabicyclo[2.2.1]heptane-2-carbonyl]-2-[1-(cyclopropylmethyl)-1H-indol-2-yl]-1H-1,3-benzodiazol-1-yl}methyl)azetidine-1-carbonyl]benzonitrile]
19 | 25 | COc1cc(C(=O)N2C[C@H]3CC[C@@H]2[C@@H]3N)cc2nc(-c3cc4ccccc4n3CC3CC3)n(CC3CN(C(=O)c4ccc(F)cc4)C3)c12 [Example 161, (1R,4R,7R)-2-{2-[1-(cyclopropylmethyl)-1H-indol-2-yl]-1-{[1-(4-fluorobenzoyl)azetidin-3-yl]methyl}-7-methoxy-1H-1,3-benzodiazole-5-carbonyl}-2-azabicyclo[2.2.1]heptan-7-amine]
20 | 22 | COc1cc(C(=O)N2CC3CCC2[C@@H]3N)cc2nc(-c3cc4cccnc4n3CC3CC3)n(Cc3cnn(-c4cccc(C)n4)c3)c12 (stereo partly drawn) [Example 355, (7R)-2-{2-[1-(cyclopropylmethyl)-1H-pyrrolo[2,3-b]pyridin-2-yl]-7-methoxy-1-{[1-(6-methylpyridin-2-yl)-1H-pyrazol-4-yl]methyl}-1H-1,3-benzodiazole-5-carbonyl}-2-azabicyclo[2.2.1]heptan-7-amine]
21 | 14 | COc1cc(C(=O)N2C[C@H]3CC[C@@H]2[C@@H]3N)cc2nc(-c3cc4ccccc4n3CC3CC3)n(CC3CN(C(=O)c4nnn(C)n4)C3)c12 [Example 142, (1R,4R,7R)-2-{2-[1-(cyclopropylmethyl)-1H-indol-2-yl]-7-methoxy-1-{[1-(2-methyl-2H-1,2,3,4-tetrazole-5-carbonyl)azetidin-3-yl]methyl}-1H-1,3-benzodiazole-5-carbonyl}-2-azabicyclo[2.2.1]heptan-7-amine]
22 | 9 | COc1cc(C(=O)N2C[C@H]3CC[C@@H]2[C@@H]3N)cc2nc(-c3cc4ccccc4n3CC3CC3)n(CC3CN(C(=O)c4ccc(C#N)cc4)C3)c12 [Example 91, 4-[3-({5-[(1R,4R,7R)-7-amino-2-azabicyclo[2.2.1]heptane-2-carbonyl]-2-[1-(cyclopropylmethyl)-1H-indol-2-yl]-7-methoxy-1H-1,3-benzodiazol-1-yl}methyl)azetidine-1-carbonyl]benzonitrile]
